Experimental data reported in US20090196924A1 (priority 2008, published 2009).
Values after ≈ are worked out from the molar mass of the structure shown.

Columns and labels:
[1] = concomitant valproate (reduces hepatic clearance of lamotrigine), for a given dose; cited from earlier work
[2] = Solubility of lamotrigine; assay type: physicochemical; conditions: all media; slightly pH-dependent, highest in 0.1N HCl
[3] = 25° C., cited from earlier work

solubility of lamotrigine [2]: moderately high in all media
SMILES: Nc1nnc(-c2cccc(Cl)c2Cl)c(N)n1 [Lamotrigine, 3,5-diamino-6-(2,3-dichlorophenyl)-as-triazine]
increase of plasma concentrations of the drug [1]: approximately two-fold | solubility in 0.1 M HCl ([3]; 0.1 M HCl): 4100 µg/mL (≈ 16 mM) | solubility in water ([3]; water): 170 µg/mL (≈ 0.664 mM)
